Data as given in US5374626A, “5'-alkylphosphonylnucleosides as antivirals” (priority 1989, dated 1994).
Read-outs that look alike come from different tables or passages of the source.

Tested on: Influenza virus
Conditions: mice, ninth day

Compound: NC(=O)c1ncn([C@@H]2O[C@H](CO)[C@@H](O)[C@H]2O)n1 [RIBAVIRIN]
- % PROTECTION (LUNG LESIONS) TEST (1.6 mg/kg (31 mcg/mouse) I.N., Wilcoxon * p < 0.01, ° p < 0.025): 15%
- % PROTECTION (LUNG LESIONS) TEST (100 mg/kg (2000 mcg/mouse) P.OS, * p < 0.01 Wilcoxon): 27%
